Results taken from patent publication US10053455B2, “Diazaspiroalkaneone-substituted oxazole derivatives as spleen tyrosine kinase inhibitors” (AB SCIENCE, priority 2014, dated 2018).
pIC50: −log10 of the molar value.

Legend:
c-Ret WT = c-Ret WT (Homo sapiens (Human), UniProt P07949); test: HTRF kinase assay, c-Ret WT; assay type: biochemical; conditions: enzymatic determination
Procedure: Most of the kinases tested in this study were cloned, expressed and purified in the facilities of the inventors. They were expressed either as N-terminus hexahistidine-, hexahistidine-asparagine- or GST-tagged enzymes in a baculovirus or in a Colibacille expression system. Remaining enzymes (JAKs) were purchased from Millipore or Proqinase. For each enzyme, steady state kinetic parameters were determined and validated with known inhibitors.
The analysis of the effect of compounds on kinase activity was assessed with the HTRF® KinEASE assay (Cisbio International), an immuno-assay based on the quantification of the level of phosphorylation of a biotinylated peptide substrate using anti-phospho-specific antibody labeled with Europium (Eu^3+) cryptate. This assay comprises two steps: —an enzymatic step, during which the peptide substrate, the kinase, ATP, Mg^2+ and/or Mn^2+ are incubated with varying concentration of drug (from 0 to 10 μM); —a detection step, at the end of the reaction (stopped by addition of EDTA which chelates Mg^2+), the antibody anti-phospho peptide-Eu^3+ (emission 620 nm) and streptavidin XL-665 (emission 665 nm) are added to the reaction mix. […] Results are expressed in delta fluorescence (DF) unit defined as follow DF %=[(ratio−ratio blank)/(ratio blank)]*100, where ratio=(665 nm/620 nm)*10^4. […]

TNFα = test: FcεRI and Kit-induced TNFα cytokine release in BMMCs; assay type: cell-based, C57BL/6J mice
Procedure: Murine bone marrow mast cells (BMMCs) are obtained by flushing bone marrow cells from the femurs of C57BL/6J mice, and then cultured for 3-4 weeks in RPMI containing mouse recombinant IL-3 (30 ng/ml). Cells were sensitized overnight in IL3-depleted culture medium with 0.1-0.2 μg/ml anti-DNP-IgE (Sigma-Aldrich D8406). Cells were preincubated with inhibitors for 30 min, and then stimulated with 10 ng/ml antigen (Ag) and/or Stem Cell Factor (SCF) (30 ng/ml). The cells were incubated for 6 h. The supernatants were harvested, and the cytokine content measured using CISBIO IL6 and TNFα HTRF assay (cat#63ADKEBU043 and 6FMTNPEB respectively).

Myeloperoxidase (MPO) = test: Myeloperoxidase activity in K/BxN arthritis model; assay type: in vivo, C57Bl/6 mice
Procedure: K/B×N serum pools were prepared from arthritic mice at 8 weeks of age. The mice were pre-treated with SYK inhibitors by two per os administration for two days before induction of arthritis. Arthritis was induced in the C57Bl/6 mice (8 weeks of age) by intraperitoneal injection (7.5 μl serum per g weight) at days 0 and 2.
The treatment with SYK inhibitors was continued for 13 days. The control mice were injected with solvent before the induction of arthritis and during the course of the disease. The compounds were dissolved in a solution containing 10% of Tween 80 and 10% 1-2 propandiol. It was prepared before administration.
MPO activity was determined following published protocol (American Journal of Pathology, (2000), 156 (6):2169-2177). Briefly, tissue samples were weighed and suspended in 50 mmol/L potassium phosphate buffer (pH 6.0) containing 5 mg/ml hexadecyltrimethylammonium bromide (Sigma Chemical Co.) at a ratio of 50 mg tissue to 1 ml of buffer. […] Using a microtiter plate scanner, 200 μl of the reaction mixture (containing 16.7 mg of o-dianisidine (Sigma Chemical Co.), […] of distilled H2O, […] of potassium-phosphate buffer, and 50 μl of 1% H2O2) was added to each well containing 7 μl of sample in a standard 96-well plate and three absorbance readings at 5 min intervals at 450 nm were recorded.

Sequence of c-Ret WT (P07949 29-1114): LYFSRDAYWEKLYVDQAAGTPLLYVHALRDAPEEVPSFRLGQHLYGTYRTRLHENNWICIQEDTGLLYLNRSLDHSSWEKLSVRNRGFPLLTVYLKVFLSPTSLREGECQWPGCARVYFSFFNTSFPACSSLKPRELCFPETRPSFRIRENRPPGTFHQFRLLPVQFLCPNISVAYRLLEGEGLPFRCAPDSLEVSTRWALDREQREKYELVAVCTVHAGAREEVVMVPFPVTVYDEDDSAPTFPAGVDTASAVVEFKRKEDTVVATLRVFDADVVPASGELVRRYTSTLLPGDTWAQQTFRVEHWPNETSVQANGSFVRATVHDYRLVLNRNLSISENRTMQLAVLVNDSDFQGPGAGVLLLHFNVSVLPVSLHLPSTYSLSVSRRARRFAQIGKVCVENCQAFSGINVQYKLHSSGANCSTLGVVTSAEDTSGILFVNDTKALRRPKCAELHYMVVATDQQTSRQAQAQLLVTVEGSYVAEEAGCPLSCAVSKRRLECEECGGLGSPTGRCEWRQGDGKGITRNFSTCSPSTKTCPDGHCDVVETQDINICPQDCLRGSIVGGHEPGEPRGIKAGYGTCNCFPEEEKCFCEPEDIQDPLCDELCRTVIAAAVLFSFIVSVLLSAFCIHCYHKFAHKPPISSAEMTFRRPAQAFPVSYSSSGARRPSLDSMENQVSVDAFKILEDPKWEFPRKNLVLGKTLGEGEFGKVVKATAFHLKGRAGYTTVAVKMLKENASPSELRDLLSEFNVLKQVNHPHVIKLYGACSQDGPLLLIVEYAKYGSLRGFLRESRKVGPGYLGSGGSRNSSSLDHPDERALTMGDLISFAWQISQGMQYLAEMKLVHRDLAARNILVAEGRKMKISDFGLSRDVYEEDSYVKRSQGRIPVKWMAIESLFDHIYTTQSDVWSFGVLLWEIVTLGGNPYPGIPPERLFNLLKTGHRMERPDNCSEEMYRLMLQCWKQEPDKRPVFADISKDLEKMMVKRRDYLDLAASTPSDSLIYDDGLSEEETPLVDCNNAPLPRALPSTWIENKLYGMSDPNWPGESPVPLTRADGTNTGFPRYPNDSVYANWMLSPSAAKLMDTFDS

Cc1ccnc(Nc2cccc(-c3cnc(N4CCNC(=O)C45CC5)o3)c2)n1 [Compound 001, 4-{5-[3-(4-Methyl-pyrimidin-2-ylamino)-phenyl]-oxazol-2-yl}-4,7-diaza-spiro[2.5]octan-8-one]
pIC50 (c-Ret WT): 5.00
TNFα Cytokine Release (% relative to control Ag + SCF) (TNFα; Ag + SCF + 0.01 μM of compound): 95%
TNFα Cytokine Release (Relative Fluorescence Units) (TNFα; Ag + SCF + 0.01 μM of compound): 468 Relative Fluorescence Units
TNFα Cytokine Release (% relative to control Ag + SCF) (TNFα; Ag + SCF + 0.1 μM of compound): 32%
TNFα Cytokine Release (Relative Fluorescence Units) (TNFα; Ag + SCF + 0.1 μM of compound): 158 Relative Fluorescence Units
TNFα Cytokine Release (% relative to control Ag + SCF) (TNFα; Ag + SCF + 1 μM of compound): 2%
TNFα Cytokine Release (Relative Fluorescence Units) (TNFα; Ag + SCF + 1 μM of compound): 9.5 Relative Fluorescence Units
pIC50 (TNFα; Mus musculus, BMMC, Ag + SCF stimulated BMMCs): ~7.30
MPO activity (Myeloperoxidase (MPO); KBxN + 15 mg/kg b.i.d.): 1.031 ± 0.24 U/ml
MPO activity (Myeloperoxidase (MPO); KBxN + 50 mg/kg b.i.d.): 0.348 ± 0.08 U/ml
